Reference: ChEMBL document CHEMBL5608173, “Discovery of novel natural-product-derived mutant isocitrate dehydrogenases 1 inhibitors: Structure-based virtual screening, biological evaluation and structure-activity relationship study” (Eur J Med Chem, 2024)
Activity calls are given as the source filed them. No cut-off for these calls is given here.

Key:
[1] = Toxicity in Sprague-Dawley rat assessed as observable clinical signs at 0.5 mg/kg, iv measured after 24 hrs; format: organism-based; conditions: in vivo
[2] = tested on: Isocitrate dehydrogenase [NADP] cytoplasmic (Homo sapiens), O75874 [R132H]; test: Inhibition of recombinant human IDH1 R132H mutant extracted from Escherichia coli BL21 (DE3) cells using alpha-ketoglutarate as substrate at 2 uM incubated for 60 mins in presence of NADPH by absorbance based assay relative to control
[3] = AUC (0 to t) in Sprague-Dawley rat at 5 mg/kg, po measured after 24 hrs by LC-MS/MS analysis; format: ADME, organism-based; conditions: in vivo
[4] = Half-life in Sprague-Dawley rat at 5 mg/kg, po measured after 24 hrs by LC-MS/MS analysis; format: ADME, organism-based; conditions: in vivo
[5] = Half-life in Sprague-Dawley rat at 0.5 mg/kg, iv measured after 24 hrs by LC-MS/MS analysis; format: ADME, organism-based; conditions: in vivo
HT-1080 [6] = test: Induction of apoptosis in human HT-1080 cells assessed as necrotic cells at 8 uM incubated for 48 hrs by Annexin V-FITC/PI staining based flow cytometric analysis (reference value: 0.45 %); format: functional
[7] = tested on: Isocitrate dehydrogenase [NADP] cytoplasmic (Homo sapiens), O75874 [R132C]; test: Inhibition of recombinant human IDH1 R132C mutant extracted from Escherichia coli BL21 (DE3) cells using alpha-ketoglutarate as substrate at 0.2 uM incubated for 60 mins in presence of NADPH by absorbance based assay relative to control
HT-1080 [8] = test: Induction of apoptosis in human HT-1080 cells assessed as viable cells at 2 uM incubated for 48 hrs by Annexin V-FITC/PI staining based flow cytometric analysis (reference value: 96.07 %); format: functional; conditions: read-out: Activity
[9] = Toxicity in Sprague-Dawley rat assessed as observable clinical signs at 5 mg/kg, po measured after 24 hrs; format: organism-based; conditions: in vivo
HT-1080 [10] = test: Inhibition of cell migration in human HT-1080 cells incubated for 24 hrs by cell scratch assay; format: functional, cell-based; conditions: dose 1-3 µM
BEAS-2B = test: Cytotoxicity against human BEAS-2B cells assessed as reduction in cell viability at 0.5 to 2 uM; format: toxicity, cell-based; conditions: dose 0.5-2 µM
[11] = Cmax in Sprague-Dawley rat at 5 mg/kg, po measured after 24 hrs by LC-MS/MS analysis; format: ADME, organism-based; conditions: in vivo
HT-1080 [12] = test: Cell cycle arrest in human HT-1080 cells assessed as G1 phase cells at 8 uM incubated for 24 hrs by PI staining based flow cytometric analysis (reference value: 58.1 %); format: functional
HT-1080 [13] = test: Cell cycle arrest in human HT-1080 cells assessed as S phase cells at 2 uM incubated for 24 hrs by PI staining based flow cytometric analysis (reference value: 18.3 %); format: functional
HT-1080 [14] = test: Induction of apoptosis in human HT-1080 cells assessed as necrotic cells at 2 uM incubated for 48 hrs by Annexin V-FITC/PI staining based flow cytometric analysis (reference value: 0.45 %); format: functional
HT-1080 [15] = test: Antitumor activity against human HT-1080 cells xenografted in female nude mouse assessed as suppression of tumor growth at 40 mg/kg, ip administered every 2 days for 8 days; format: functional, organism-based; conditions: time 8.0 day
HT-1080 [16] = test: Antiproliferative activity against human HT-1080 cells harboring IDH1 R132C mutant assessed as reduction in cell viability at 10 uM incubated for 72 hrs by MTT assay; format: functional, cell-based
HT-1080 [17] = test: Induction of apoptosis in human HT-1080 cells assessed as viable cells at 6 uM incubated for 24 hrs by Annexin V-FITC/PI staining based flow cytometric analysis (reference value: 96.65 %); format: functional; conditions: read-out: Activity
[18] = Cmax in Sprague-Dawley rat at 0.5 mg/kg, iv measured after 24 hrs by LC-MS/MS analysis; format: ADME, organism-based; conditions: in vivo
HT-1080 [19] = test: Cell cycle arrest in human HT-1080 cells assessed as G2 phase cells at 10 uM incubated for 24 hrs by PI staining based flow cytometric analysis (reference value: 23.6 %); format: functional
[20] = Toxicity in female nude mouse xenografted with human HT-1080 cells assessed as body weight loss at 40 mg/kg, ip administered every 2 days for 8 days; format: organism-based; conditions: in vivo, 192 h, time 8 day
[21] = tested on: Isocitrate dehydrogenase [NADP] cytoplasmic (Homo sapiens), O75874 [R132H]; test: Inhibition of recombinant human IDH1 R132H mutant extracted from Escherichia coli BL21 (DE3) cells using alpha-ketoglutarate as substrate at 0.2 uM incubated for 60 mins in presence of NADPH by absorbance based assay relative to control
HT-1080 [22] = test: Induction of apoptosis in human HT-1080 cells assessed as late apoptotic cells at 6 uM incubated for 48 hrs by Annexin V-FITC/PI staining based flow cytometric analysis (reference value: 0.60 %); format: functional
HT-1080 [23] = test: Induction of apoptosis in human HT-1080 cells assessed as early apoptotic cells at 8 uM incubated for 48 hrs by Annexin V-FITC/PI staining based flow cytometric analysis (reference value: 2.33 %); format: functional
HT-1080 [24] = test: Induction of apoptosis in human HT-1080 cells assessed as late apoptotic cells at 8 uM incubated for 48 hrs by Annexin V-FITC/PI staining based flow cytometric analysis (reference value: 1.15 %); format: functional
HT-1080 [25] = test: Induction of apoptosis in human HT-1080 cells assessed as late apoptotic cells at 4 uM incubated for 48 hrs by Annexin V-FITC/PI staining based flow cytometric analysis (reference value: 1.15 %); format: functional
[26] = In vivo inhibition of IDH1 mutant in female nude mouse xenografted with human HT-1080 cells assessed as reduction in 2-HG levels in tumor at 20 mg/kg, ip administered twice at 1 hrs interval by resazurin fluorescence dye based Sigma MAK320-1 assay kit analysis relative to control; format: functional
HT-1080 [27] = test: Induction of apoptosis in human HT-1080 cells assessed as viable cells at 8 uM incubated for 48 hrs by Annexin V-FITC/PI staining based flow cytometric analysis (reference value: 96.07 %); format: functional; conditions: read-out: Activity
HT-1080 [28] = test: Induction of apoptosis in human HT-1080 cells assessed as early apoptotic cells at 6 uM incubated for 48 hrs by Annexin V-FITC/PI staining based flow cytometric analysis (reference value: 2.36 %); format: functional
[29] = molecular target: Isocitrate dehydrogenase [NADP] cytoplasmic (Homo sapiens, UniProt O75874, R132H); test: Inhibition of recombinant human IDH1 R132H mutant extracted from Escherichia coli BL21 (DE3) cells using alpha-ketoglutarate as substrate incubated for 60 mins in presence of NADPH by absorbance based assay
[30] = AUC (0 to t) in Sprague-Dawley rat at 0.5 mg/kg, iv measured after 24 hrs by LC-MS/MS analysis; format: ADME, organism-based; conditions: in vivo
HT-1080 [31] = test: Cell cycle arrest in human HT-1080 cells assessed as G2 phase cells at 4 uM incubated for 24 hrs by PI staining based flow cytometric analysis (reference value: 23.6 %); format: functional
[32] = Oral bioavailability in Sprague-Dawley rat at 5 mg/kg measured after 24 hrs by LC-MS/MS analysis; format: ADME, organism-based; conditions: in vivo
[33] = In vivo inhibition of IDH1 mutant in female nude mouse xenografted with human HT-1080 cells assessed as reduction in 2-HG levels in tumor at 40 mg/kg, ip administered twice at 1 hrs interval by resazurin fluorescence dye based Sigma MAK320-1 assay kit analysis relative to control; format: functional

Isocitrate dehydrogenase [NADP] cytoplasmic (Homo sapiens), O75874 [R132H], sequence (O75874 whole entry R132H): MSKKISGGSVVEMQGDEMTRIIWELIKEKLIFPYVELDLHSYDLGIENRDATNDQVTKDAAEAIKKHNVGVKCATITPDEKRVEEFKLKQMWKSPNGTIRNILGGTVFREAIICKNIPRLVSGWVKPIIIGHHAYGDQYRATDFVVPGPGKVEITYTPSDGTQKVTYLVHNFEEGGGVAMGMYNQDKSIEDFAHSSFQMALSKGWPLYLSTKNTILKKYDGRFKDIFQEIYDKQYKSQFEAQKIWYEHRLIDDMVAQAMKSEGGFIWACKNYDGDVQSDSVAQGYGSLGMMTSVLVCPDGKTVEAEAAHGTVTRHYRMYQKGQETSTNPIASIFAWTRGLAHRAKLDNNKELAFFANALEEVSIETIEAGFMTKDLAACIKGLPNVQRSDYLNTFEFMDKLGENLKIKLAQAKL
Isocitrate dehydrogenase [NADP] cytoplasmic (Homo sapiens), O75874 [R132C], sequence (O75874 whole entry R132C): as the sequence (O75874 whole entry R132H) above, with H132C counted along it
Isocitrate dehydrogenase [NADP] cytoplasmic, sequence (O75874 2-414 R132H limits assumed): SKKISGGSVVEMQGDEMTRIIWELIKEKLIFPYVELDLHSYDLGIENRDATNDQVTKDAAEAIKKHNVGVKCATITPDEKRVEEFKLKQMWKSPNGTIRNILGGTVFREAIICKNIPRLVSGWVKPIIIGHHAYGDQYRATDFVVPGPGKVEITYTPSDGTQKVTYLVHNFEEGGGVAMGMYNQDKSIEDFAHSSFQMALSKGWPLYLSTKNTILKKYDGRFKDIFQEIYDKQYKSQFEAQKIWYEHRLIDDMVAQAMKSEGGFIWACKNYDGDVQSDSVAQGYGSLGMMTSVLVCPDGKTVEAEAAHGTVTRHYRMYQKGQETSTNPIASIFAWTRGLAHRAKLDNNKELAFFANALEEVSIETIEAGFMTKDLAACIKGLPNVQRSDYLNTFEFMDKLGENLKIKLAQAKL

COc1cc(O)c(-c2cc(-c3ccc(O)cc3)nc(N3CCNCC3)n2)cc1CC=C(C)C
Activity [1]: Non-Toxic
inhibition [2]: > 100%
AUC(0-t) at 24 h [3]: 370 ng·h/mL
half-life [4]: 2.13 h
half-life [5]: 1.46 h
Activity (HT-1080 [6]): 4.66%
inhibition [7]: 65.9%
viability at 2 µM (HT-1080 [8]): 88.8%
Activity [9]: Non-Toxic
inhibition (HT-1080 [10]): Dose-Dependent Effect
Activity (BEAS-2B): Non-Toxic
Cmax [11]: 478 ng/mL
Activity (HT-1080 [12]): 51.8%
Activity (HT-1080 [13]): 22.4%
Activity (HT-1080 [14]): 1.16%
Activity (HT-1080 [15]): Active
Activity (HT-1080 [16]): Active
viability at 6 µM (HT-1080 [17]): 87.3%
Cmax [18]: 766 ng/mL
Activity (HT-1080 [19]): 3%
Activity [20]: Non-Toxic
inhibition [21]: 75.4%
Activity (HT-1080 [22]): 6.57%
Activity (HT-1080 [23]): 7.82%
Activity (HT-1080 [24]): 17.93%
Activity (HT-1080 [25]): 9.67%
inhibition in vivo at 20 mg/kg [26]: 75%
viability at 8 µM (HT-1080 [27]): 69.6%
Activity (HT-1080 [28]): 11.25%
IC50 [29]: 124 nM
AUC(0-t) at 24 h [30]: 236 ng·h/mL
Activity (HT-1080 [31]): 21%
bioavailability [32]: 16.8%
inhibition in vivo at 40 mg/kg [33]: 96%
